{"source": "patent US10987350B2", "about": "“Method for treating post-traumatic stress disorder” (priority 2017, dated 2021)", "key": {"[1]": {"tested_on": "liver", "details": "compared with naltrexone; cited from earlier work"}, "[2]": {"details": "compared with naltrexone; cited from earlier work"}, "[3]": {"tested_on": "patient diagnosed with post-traumatic stress disorder (PTSD)", "assay": "higher dose titration schedule of nalmefene in patients diagnosed with PTSD", "format": "in vivo, human", "procedure": "One object of the subject invention is to provide improved benefit to patients diagnosed with PTSD, by employing a higher dose titration schedule for the administration of nalmefene. In accordance with the nalmefene dosing titration schedule of the subject invention, nalmefene is administered at a higher initial dose than the dosing schedule published in the pilot study, and administering nalmefene at the same, higher dose increments at regular intervals described above. Specifically, the subject invention comprises administering nalmefene orally to a PTSD patient at an initial dose of 100 milligrams per day, preferably using 50 milligram doses, twice a day, with increases every 3-4 days of 100 mg per day (50 milligrams twice a day), not to exceed 1000 mg per day (500 mg twice a day).\nThe subject invention comprises administering, on a dosing titration schedule, nalmefene, to a patient diagnosed with post-traumatic stress disorder (PTSD), using • a starting dose of 100 mg per day, preferably in divided doses of 50 mg twice per day; and • increasing the dose by 100-150 mg per day, every 2-5 days, up to a maximum daily dose of 1000 mg, per day.\nEach increase is preferably 100 mg per day, at a divided dose of 50 mg twice per day.\nAn optimum dose of nalmefene, wherein PTSD symptoms are reduced or reversed, can be achieved within 2-3 weeks for individuals diagnosed with PTSD. The reduced or reversed. PTSD symptoms are based on both clinical observation of the patient and on reporting of reduced or reversed symptoms by the patient."}, "[4]": {"tested_on": "combat veterans diagnosed with post-traumatic stress disorder (PTSD)", "details": "18 combat veterans with PTSD; 1 mg twice a day up to 200 mg twice a day; cited from earlier work"}, "[5]": {"tested_on": "respiratory depression produced by opiate overdose", "details": "cited from earlier work"}, "[6]": {"details": "dosing administration schedule of the invention"}}}
{"smiles": "C=C1CC[C@@]2(O)[C@H]3Cc4ccc(O)c5c4[C@@]2(CCN3CC2CC2)[C@H]1O5", "note": "[nalmefene]", "values": [{"measurement": "dose-dependent liver toxicity", "setting": "[1]", "value": "no observed dose-dependent liver toxicity"}, {"measurement": "half-life relative to naltrexone", "setting": "[2]", "value": "longer half-life"}, {"measurement": "adverse reaction with large dose increments", "setting": "[3]; dose increments significantly greater than 50 milligrams twice a day", "value": "frequent and intense mood swings"}, {"measurement": "occurrence of fluctuating mood states (anxiety, hostility and rage, depression, paranoia) with dose increases", "setting": "[3]; [6]", "value": "successful in avoiding the occurrence of fluctuating mood states"}, {"measurement": "time to stabilization of mental state of the PTSD patient", "setting": "[3]; [6]", "value": "stabilized in a much briefer period of time"}, {"measurement": "emergence of opiate withdrawal symptoms", "setting": "[3]; higher dose of at least 50 mgs twice a day", "value": "unexpectedly bypassed the emergence of opiate withdrawal symptoms"}, {"measurement": "time to achieve optimum dose, wherein PTSD symptoms are reduced or reversed", "setting": "[3]; higher dose titration schedule, clinical observation and patient reporting", "value": "2-3 weeks"}, {"measurement": "core symptoms of PTSD (nightmares, intrusive thoughts, flashbacks, avoidance, dissociative amnesia, mistrust, hyper arousal)", "setting": "[4]", "value": "significantly improve all core symptoms of PTSD"}, {"measurement": "symptom of emotional numbness", "setting": "[4]", "value": "significantly reduce, and in some cases remit"}, {"measurement": "additional benefit in opiate overdose at higher doses", "setting": "[5]; intravenous doses greater than 1.5 mg", "value": "do not appear to give any greater benefit"}, {"measurement": "counteracting respiratory depression produced by opiate overdose", "setting": "[5]; intravenous doses", "value": "effective"}]}
